A short description of the series: activity coefficient (dimensionless); of the first substance listed, at infinite dilution; xn = mol fraction of the nth substance listed. The note with it: Liquid, Chromatography, x1 = 0.

± gives the expanded uncertainty stated by the source.

`CCC(C)(C)OC` [2-methoxy-2-methylbutane] + CCCCn1cc[n+](C)c1.N#CN=C=[N-]: the activity coefficient was 10.7 ± 0.7 (318.15 K); 11.1 ± 0.8 (328.15 K); 11.5 ± 0.8 (338.15 K); 11.8 ± 0.8 (348.15 K); 12.2 ± 0.8 (358.15 K); 12.5 ± 0.9 (368.15 K).

Consider `COC(C)=O` [methyl ethanoate] + CCCCn1cc[n+](C)c1.N#CN=C=[N-], for which the activity coefficient runs as follows: (318.15 K) 1.61 ± 0.11; (328.15 K) 1.71 ± 0.11; (338.15 K) 1.81 ± 0.12; (348.15 K) 1.9 ± 0.13; (358.15 K) 1.99 ± 0.14; (368.15 K) 2.09 ± 0.14.

Turning to `C=CCCC` [1-pentene] + CCCCn1cc[n+](C)c1.N#CN=C=[N-], the activity coefficient (318.15 K) came out at 17.3 ± 1.2; the activity coefficient (328.15 K) came out at 17.3 ± 1.2; the activity coefficient (338.15 K) is 17.3 ± 1.2; the activity coefficient (348.15 K) came to 17.3 ± 1.2; the activity coefficient (358.15 K) was 17.3 ± 1.2; the activity coefficient (368.15 K) was determined as 17.3 ± 1.2.

In the case of `CCC[N+](=O)[O-]` [1-nitropropane] + CCCCn1cc[n+](C)c1.N#CN=C=[N-], the activity coefficient runs as follows: (318.15 K) 1.26 ± 0.08; (328.15 K) 1.31 ± 0.09; (338.15 K) 1.36 ± 0.09; (348.15 K) 1.41 ± 0.09; (358.15 K) 1.45 ± 0.1; (368.15 K) 1.5 ± 0.1.

`C=CCCCCC` [1-heptene] + CCCCn1cc[n+](C)c1.N#CN=C=[N-]: the activity coefficient turned out to be 39 ± 2.7 (318.15 K); 38.5 ± 2.6 (328.15 K); 38.1 ± 2.6 (338.15 K); 37.7 ± 2.6 (348.15 K); 37.3 ± 2.6 (358.15 K); 37 ± 2.5 (368.15 K).

`CC(C)=O` [acetone] + CCCCn1cc[n+](C)c1.N#CN=C=[N-]: the activity coefficient (318.15 K) was 1 ± 0.06; the activity coefficient (328.15 K) is 1.05 ± 0.07; the activity coefficient (338.15 K) stood at 1.11 ± 0.07; the activity coefficient (348.15 K) worked out at 1.16 ± 0.07; the activity coefficient (358.15 K) amounted to 1.22 ± 0.08; the activity coefficient (368.15 K) is 1.27 ± 0.08.

Regarding `CCC(=O)CC` [pentan-3-one] + CCCCn1cc[n+](C)c1.N#CN=C=[N-], the activity coefficient runs as follows: (318.15 K) 2.04 ± 0.14; (328.15 K) 2.16 ± 0.15; (338.15 K) 2.27 ± 0.15; (348.15 K) 2.38 ± 0.16; (358.15 K) 2.49 ± 0.17; (368.15 K) 2.6 ± 0.18.

Regarding `c1ccccc1` [benzene] + CCCCn1cc[n+](C)c1.N#CN=C=[N-], the activity coefficient is, setting by setting: (318.15 K) 1.87 ± 0.13; (328.15 K) 1.95 ± 0.13; (338.15 K) 2.03 ± 0.14; (348.15 K) 2.11 ± 0.14; (358.15 K) 2.19 ± 0.15; (368.15 K) 2.28 ± 0.16.

Regarding `C=CCCCCCC` [oct-1-ene] + CCCCn1cc[n+](C)c1.N#CN=C=[N-], the activity coefficient is, setting by setting: (318.15 K) 60.1 ± 4.1; (328.15 K) 58.9 ± 4; (338.15 K) 58 ± 4; (348.15 K) 57 ± 3.9; (358.15 K) 56.2 ± 3.8; (368.15 K) 55.5 ± 3.8.

For the molecule `CCCC=O` [butanal] + CCCCn1cc[n+](C)c1.N#CN=C=[N-], the activity coefficient reads like this: (318.15 K) 1.61 ± 0.11; (328.15 K) 1.67 ± 0.11; (338.15 K) 1.74 ± 0.12; (348.15 K) 1.8 ± 0.12; (358.15 K) 1.87 ± 0.13; (368.15 K) 1.93 ± 0.13.

Take `CCC(=O)OC` [methyl propanoate] + CCCCn1cc[n+](C)c1.N#CN=C=[N-]: the activity coefficient turned out to be 2.36 ± 0.16 (318.15 K); 2.47 ± 0.17 (328.15 K); 2.59 ± 0.18 (338.15 K); 2.7 ± 0.18 (348.15 K); 2.81 ± 0.19 (358.15 K); 2.92 ± 0.2 (368.15 K).

For `C=CCCCC` [hex-1-ene] + CCCCn1cc[n+](C)c1.N#CN=C=[N-], the activity coefficient reads like this: (318.15 K) 26.4 ± 1.8; (328.15 K) 25.9 ± 1.8; (338.15 K) 25.5 ± 1.7; (348.15 K) 25.1 ± 1.7; (358.15 K) 24.7 ± 1.7; (368.15 K) 24.4 ± 1.7.

With `C=Cc1ccccc1` [styrene] + CCCCn1cc[n+](C)c1.N#CN=C=[N-], the activity coefficient is, setting by setting: (318.15 K) 2.15 ± 0.15; (328.15 K) 2.28 ± 0.16; (338.15 K) 2.41 ± 0.16; (348.15 K) 2.53 ± 0.17; (358.15 K) 2.65 ± 0.18; (368.15 K) 2.78 ± 0.19.

`CCOC(C)(C)C` [2-ethoxy-2-methylpropane] + CCCCn1cc[n+](C)c1.N#CN=C=[N-]: the activity coefficient worked out at 18.1 ± 1.2 (318.15 K); 18.4 ± 1.3 (328.15 K); 18.7 ± 1.3 (338.15 K); 19.1 ± 1.3 (348.15 K); 19.3 ± 1.3 (358.15 K); 19.7 ± 1.3 (368.15 K).

Consider `CCCC(C)=O` [pentan-2-one] + CCCCn1cc[n+](C)c1.N#CN=C=[N-], for which the activity coefficient (318.15 K) worked out at 2 ± 0.14; the activity coefficient (328.15 K) came out at 2.11 ± 0.14; the activity coefficient (338.15 K) turned out to be 2.22 ± 0.15; the activity coefficient (348.15 K) came to 2.32 ± 0.16; the activity coefficient (358.15 K) is 2.43 ± 0.17; the activity coefficient (368.15 K) was 2.53 ± 0.17.

For `C1CCCCCC1` [cycloheptane] + CCCCn1cc[n+](C)c1.N#CN=C=[N-], the activity coefficient was determined as 32.6 ± 2.2 (318.15 K); 31.2 ± 2.1 (328.15 K); 30.1 ± 2.1 (338.15 K); 29.1 ± 2 (348.15 K); 28.1 ± 1.9 (358.15 K); 27.3 ± 1.9 (368.15 K).

Take `CC(C)OC(C)C` [diisopropyl ether] + CCCCn1cc[n+](C)c1.N#CN=C=[N-]: the activity coefficient amounted to 20.6 ± 1.4 (318.15 K); 20.9 ± 1.4 (328.15 K); 21.2 ± 1.4 (338.15 K); 21.5 ± 1.5 (348.15 K); 21.8 ± 1.5 (358.15 K); 22 ± 1.5 (368.15 K).

`CCC(C)(C)C` [2,2-dimethylbutane] + CCCCn1cc[n+](C)c1.N#CN=C=[N-]: the activity coefficient stood at 53.6 ± 3.7 (318.15 K); 51.7 ± 3.5 (328.15 K); 50.1 ± 3.4 (338.15 K); 48.7 ± 3.3 (348.15 K); 47.4 ± 3.2 (358.15 K); 46 ± 3.1 (368.15 K).

As for `CCCCCC` [hexane] + CCCCn1cc[n+](C)c1.N#CN=C=[N-], the activity coefficient runs as follows: (318.15 K) 61.6 ± 4.2; (328.15 K) 59.3 ± 4.1; (338.15 K) 57.1 ± 3.9; (348.15 K) 55.2 ± 3.8; (358.15 K) 53.4 ± 3.7; (368.15 K) 51.7 ± 3.5.

Take `CC1CCCCC1` [methylcyclohexane] + CCCCn1cc[n+](C)c1.N#CN=C=[N-]: the activity coefficient is 40.2 ± 2.8 (318.15 K); 38.3 ± 2.6 (328.15 K); 36.5 ± 2.5 (338.15 K); 35 ± 2.4 (348.15 K); 33.6 ± 2.3 (358.15 K); 32.4 ± 2.2 (368.15 K).

With `C1CCOC1` [tetrahydrofuran] + CCCCn1cc[n+](C)c1.N#CN=C=[N-], the activity coefficient reads like this: (318.15 K) 1.55 ± 0.1; (328.15 K) 1.63 ± 0.11; (338.15 K) 1.71 ± 0.11; (348.15 K) 1.78 ± 0.12; (358.15 K) 1.85 ± 0.12; (368.15 K) 1.93 ± 0.13.

As for `C1=CCCCC1` [cyclohexene] + CCCCn1cc[n+](C)c1.N#CN=C=[N-], the activity coefficient reads like this: (318.15 K) 11.4 ± 0.8; (328.15 K) 11.4 ± 0.8; (338.15 K) 11.3 ± 0.8; (348.15 K) 11.3 ± 0.8; (358.15 K) 11.3 ± 0.8; (368.15 K) 11.3 ± 0.8.

Consider `CCCOCCC` [dipropyl ether] + CCCCn1cc[n+](C)c1.N#CN=C=[N-], for which the activity coefficient by setting is: (318.15 K) 20.4 ± 1.4; (328.15 K) 20.5 ± 1.4; (338.15 K) 20.5 ± 1.4; (348.15 K) 20.5 ± 1.4; (358.15 K) 20.5 ± 1.4; (368.15 K) 20.6 ± 1.4.

Consider `Cc1ccc(C)cc1` [1,4-dimethylbenzene] + CCCCn1cc[n+](C)c1.N#CN=C=[N-], for which the activity coefficient runs as follows: (318.15 K) 4.44 ± 0.3; (328.15 K) 4.62 ± 0.31; (338.15 K) 4.82 ± 0.33; (348.15 K) 5 ± 0.34; (358.15 K) 5.18 ± 0.35; (368.15 K) 5.37 ± 0.37.

Turning to `CCCO` [propan-1-ol] + CCCCn1cc[n+](C)c1.N#CN=C=[N-], the activity coefficient (318.15 K) worked out at 0.826 ± 0.053; the activity coefficient (328.15 K) is 0.835 ± 0.054; the activity coefficient (338.15 K) was 0.844 ± 0.054; the activity coefficient (348.15 K) came out at 0.853 ± 0.055; the activity coefficient (358.15 K) came to 0.862 ± 0.055; the activity coefficient (368.15 K) amounted to 0.871 ± 0.056.

`CCCCCCCCCC` [decane] + CCCCn1cc[n+](C)c1.N#CN=C=[N-]: the activity coefficient (318.15 K) is 314 ± 22; the activity coefficient (328.15 K) is 285 ± 20; the activity coefficient (338.15 K) stood at 260 ± 18; the activity coefficient (348.15 K) came out at 239 ± 16; the activity coefficient (358.15 K) turned out to be 221 ± 15; the activity coefficient (368.15 K) is 205 ± 14.

For the molecule `CCCCO` [butan-1-ol] + CCCCn1cc[n+](C)c1.N#CN=C=[N-], the activity coefficient reads like this: (318.15 K) 1.1 ± 0.07; (328.15 K) 1.11 ± 0.07; (338.15 K) 1.12 ± 0.07; (348.15 K) 1.13 ± 0.07; (358.15 K) 1.14 ± 0.07; (368.15 K) 1.15 ± 0.07.

With `CC(C)O` [propan-2-ol] + CCCCn1cc[n+](C)c1.N#CN=C=[N-], the activity coefficient worked out at 0.921 ± 0.058 (318.15 K); 0.93 ± 0.059 (328.15 K); 0.94 ± 0.059 (338.15 K); 0.948 ± 0.06 (348.15 K); 0.956 ± 0.06 (358.15 K); 0.963 ± 0.061 (368.15 K).

For the origin of these results see the NIST ThermoML archive (doi:10.1016/j.fluid.2016.02.004).
